Data taken from patent publication US3972991A, “Radioisotopic assay and binder therefor” (priority 1974, dated 1976).
Counter-ions that a name gives are not always drawn.

Tests used:
[1] = tested on: hog kidney binder factor; assay: effect of enzymes, pH, ions, chelators, denaturants and other agents on binding of 3H-PGA to hog kidney binder; conditions: for effect on binding activity of the binder composition: before complex formation
[2] = molecular target: hog kidney folate binder; assay: direct competition for PGA binding sites in hog kidney folate binder (FIG. 6A)
Experimental: The reaction was started by addition of folate binder and allowed to proceed for 30 minutes at room temperature in the dark. The reaction was stopped by placing the tubes on ice and adding 1.0 ml of a suspension of powdered activated charcoal coated with albumin. After 2 to 3 minutes on ice, the tubes were centrifuged at 6000 × G for 10 minutes at 4°C to remove the charcoal absorbed "free" folate. 1.0 ml of the clear supernatant fluid which contained the folate/binder complex was counted by liquid scintillation spectroscopy according to known procedures. Charcoal controls prepared by substituting buffer for binder in one series of tubes were prepared to determine the number of counts not removed by the charcoal. Percent maximum binding was calculated by the formula [formula]

[3] = tested on: hog kidney binder factor; assay: sequential addition of unlabeled folate derivatives and 3H-PGA, displacement (FIG. 6B); assay type: binding; conditions: PGA curve of FIG. 6B
Experimental: The binding conditions were similar to those used in obtaining the data appearing in FIG. 6A except that 3 pmoles of ^3 H-PGA was added to the reaction containing enough binder factor to bind about 2.5 pmoles of PGA. The binder was preincubated for 30 minutes in the dark at room temperature with unlabeled folate derivatives as indicated. Then the ^3 H-PGA was added and the reaction allowed to continue for an additional 30 minutes and then stopped and counted as in obtaining the data for FIG. 6A.
The calculated curve of FIG. 6B depicts the relationship to be expected by balancing on a molar basis the binding capacity of the hog kidney binder factor with the known pmoles of folate analog added in the absence of any displacement. […] The hog kidney binder factor thus differs from other high affinity folate binder factors such as those found in milk and in serum and in leukocytes of some patients with chronic granulocytic leukemia.

[4] = storage stability; assay type: physicochemical
Experimental: The standard or known folate (d,1,L-5-methyltetrahydrofolic acid) (Sigma Chemical) is dissolved in 0.05 M potassium phosphate buffer pH 7.6 and then brought to 0.1 M with 2-mercapto-ethanol. Here the mercapto-alcohol acts as a stabilizer for the folate or folic acid.
High specific activity ^3 H-PGA (15-50 Ci/m mole; Amersham Searle) is conveniently utilized as the tracer or labeled compound. It is dissolved in 20% ethanol and stored at -80°C. For use in the assay, the stock solution is diluted 1:100 in potassium phosphate buffer (0.05 M pH 7.6).
Finely divided activated charcoal coated with albumin is prepared by mixing equal volumes of a 5% powdered activated charcoal (Norit A) suspension (w/v, in distilled water) and a 1% aqueous solution of bovine albumin (Fraction V of Cohn).
Blood to be assayed for folate is obtained by venapuncture and allowed to clot at room temperature. The serum is collected by centrifugation and 5 milligrams of ascorbic acid per milliliter of serum is added.

[5] = tested on: hog kidney binder; assay: direct binding studies with labeled folates on hog kidney binder
[6] = tested on: hog kidney binder factor; assay: rate of PGA binder complex formation and dissociation; assay type: binding; conditions: for initial rate of binding: 3H-PGA approximately 20% excess
Experimental: The rate of PGA binder complex formation with hog kidney binder factor was determined at several temperatures by equilibrating solutions of the binder and of ^3 H-PGA at the appropriate temperature and then combining aliquots of each such that the ^3 H-PGA was in approximately 20% excess to the binding capacity of the hot kidney binder factor composition. The reaction was terminated by the addition of 1.0 ml of ice cold suspension of powdered activated charcoal coated with albumin.

[7] = tested on: All other binder factors; assay: inactivation of other binder factors by trypsin; assay type: binding; conditions: trypsin solution 1:250, 1 mg/ml
Experimental: Preincubating a 1.0 ml aliquot of binder extract from hog kidney having a binding capacity of 25 ng PGA/ml, with 1.0 ml RNase (Worthington, 2 micrograms per ml) or with DNase I (Worthington 2 micrograms per ml) for 30 minutes at 37°C had no effect on the binding of ^3 H-PGA. […] All other binder factors are inactivated by a trypsin solution 1:250, 1 mg/ml.

Molecule: OCCS [2-mercaptoethanol]
- effect on the binding reaction ([1]; concentrations of 10^-^7 to 10^-^1 M): no effect

Molecule: CN1c2c(nc(N)[nH]c2=O)NCC1CNc1ccc(C(=O)N[C@@H](CCC(=O)O)C(=O)O)cc1 (stereo partly shown) [5CH3 FH4, d,1,5-methyltetrahydrofolic acid]
- amount required to achieve 50% inhibition of 3H-PGA binding ([2]; FIG. 6A, 0.225 pmoles 3H-PGA, pH 7.6, total volume 1.0 ml, 30 min room temperature): about 0.32 pmoles
- tightness of binding of the hog kidney binder factor with PGA and 5CH3 FH4 [3]: approximately equal
- stability of stock solution ([4]; approximately 5 micrograms per ml, 0.1 M 2-mercaptoethanol, pH 7.6, -80°C): at least 6 months

Molecule: O=C(O)CN(CCN(CC(=O)O)CC(=O)O)CC(=O)O [EDTA, ethyldiamine tetraacetic acid]
- effect on binding at any pH ([1]; 20 mM): No effect

Molecule: Nc1nc2c(c(=O)[nH]1)NC(CN(C=O)c1ccc(C(=O)N[C@@H](CCC(=O)O)C(=O)O)cc1)CN2 (stereo partly shown) [N-10, formyltetrahydrofolic acid]
- competition for PGA binding sites [2]: high degree of competition

Molecule: CN(Cc1cnc2nc(N)nc(N)c2n1)c1ccc(C(=O)N[C@@H](CCC(=O)O)C(=O)O)cc1 [^3 H-MTX, ^3 H-methotrexate]
- binding affinity less than that of 3H-PGA ([5]; direct binding, 3H-MTX 13 Ci/mmole): at least 500 times

Molecule: [14CH3]N1c2c([nH]c(N)nc2=O)NCC1CNc1ccc(C(=O)N[C@@H](CCC(=O)O)C(=O)O)cc1 (stereo partly shown) [^14 C--5CH3 FH4]
- binding results compared with those obtained with 3H-PGA [5]: essentially the same
- bound by the extract, of the available labeled folate [5]: more than 90%

Molecule: [Ca+2] [calcium]
- effect on binding at any pH ([1]; 5 mM): No effect

Molecule: O=C(O)CC(O)(CC(=O)O)C(=O)O [citrate]
- effect on binding at any pH ([1]; 10 mM): No effect

Molecule: Nc1nc2c(c(=O)[nH]1)NC(CNc1ccc(C(=O)N[C@@H](CCC(=O)O)C(=O)O)cc1)CN2 (stereo partly shown) [d, 1-tetrahydrofolic acid]
- competition for PGA binding sites [2]: high degree of competition

Molecule: N=C(N)N [guanidine hydrochloride]
- effect on folate binder complex after it had formed ([1]; 6 M): could disrupt the complex
- reversibility of the guanidine hydrochloride effect ([1]; 6 M): nearly completely reversible
- effect on binding activity of the binder composition ([1]; 6 M): binding activity was lost

Molecule: [Mg+2] [magnesium]
- effect on binding at any pH ([1]; 5 mM): No effect

Molecule: c1cnc2c(c1)ccc1cccnc12 [o-phenanthroline]
- effect on the binding reaction ([1]; concentrations up to 2.0 × 10^-^6 M): no effect

Molecule: NC(N)=O [urea]
- effect on folate binder complex after it had formed ([1]; 8 M): no effect
- effect on binding activity of the binder composition ([1]; 8 M): binding activity was lost

Molecule: [Zn] [zinc]
- effect on binding at any pH ([1]; 5 mM): No effect

Molecule: ^3 H-pteroylmonoglutamate [^3 H-PGA]
- initial rate of binding ([6]; 4°C): about 0.65 % per second
- initial rate of binding ([6]; 21°C): 1.3 % per second
- initial rate of binding ([6]; 37°C): 2.5 % per second
- disassociation of the 3H-PGA binder complex ([6]; one hour at 37°C, 50-fold excess of unlabeled PGA): no significant disassociation
- stability [4]: unstable

B1: trypsin: solution of trypsin (protein, UniProt P00760 24-246, looked up)
Serine protease 1: IVGGYTCGANTVPYQVSLNSGYHFCGGSLINSQWVVSAAHCYKSGIQVRLGEDNINVVEGNEQFISASKSIVHPSYNSNTLNNDIMLIKLKSAASLNSRVASISLPTSCASAGTQCLISGWGNTKSSGTSYPDVLKCLKAPILSDSSCKSAYPGQITSNMFCAGYLEGGKDSCQGDSGGPVVCSGKLQGIVSWGSGCAQKNKPGVYTKVCNYVSWIKQTIASN
- effect of preincubation with trypsin on hog binder factor ([1]; 1.0 ml trypsin solution, 30 minutes): completely inactivated
- inactivation of other binder factors by trypsin [7]: inactivated

B2: RNase: RNase (Worthington) (protein, UniProt P61823 27-150, looked up)
Ribonuclease pancreatic: KETAAAKFERQHMDSSTSAASSSNYCNQMMKSRNLTKDRCKPVNTFVHESLADVQAVCSQKNVACKNGQTNCYQSYSTMSITDCRETGSSKYPNCAYKTTQANKHIIVACEGNPYVPVHFDASV
- effect of preincubation on binding of 3H-PGA ([1]; 2 micrograms per ml, 30 minutes at 37°C): no effect
